Reference: patent publication US8178534B2, “cMET inhibitors” (Takeda Pharmaceutical Company Limited, priority 2008, dated 2012)

What was measured:
[1] = target: T1, cMET enzyme (amino acids 1023-1360) (Homo sapiens, UniProt P08581); assay: Determination of inhibition of cMET (capillary electrophoresis, phosphorylated peptide product); format: biochemical; details: 1.2 nM cMET, 50 μM ATP, 2 μM FL-2 peptide, 2 hours room temperature
T1 construct: The cMET enzyme (amino acids 1023-1360) nominally at 24 μM was held at −80° C. until use; His tag (N, cleaved yes); made in house; host or cells: Sf9 cells

MKN45 = assay: Inhibition of cell viability (MTS), MKN45; format: cell-based; details: Homo sapiens, 96 hours incubation
In short: (§1)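 Cells seeded at 2,000-7,500/well, attached ~24 h, then treated in duplicate with 1:2.5 serial dilutions at 0.5% final DMSO. Viability by MTS; EC50 from non-linear fit after background correction and normalisation to DMSO. MKN45 and EBC1 are cMET-dependent; A549 serves as negative control.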

EBC1 = assay: Inhibition of cell viability (MTS), EBC1; format: cell-based; details: Homo sapiens, 96 hours incubation
In short: as §1

A549 = assay: Inhibition of cell viability (MTS), A549 (negative control line); format: cell-based; details: Homo sapiens, A549 cells (negative control), 96 hours incubation
In short: as §1

T1 sequence (P08581 1023-1360): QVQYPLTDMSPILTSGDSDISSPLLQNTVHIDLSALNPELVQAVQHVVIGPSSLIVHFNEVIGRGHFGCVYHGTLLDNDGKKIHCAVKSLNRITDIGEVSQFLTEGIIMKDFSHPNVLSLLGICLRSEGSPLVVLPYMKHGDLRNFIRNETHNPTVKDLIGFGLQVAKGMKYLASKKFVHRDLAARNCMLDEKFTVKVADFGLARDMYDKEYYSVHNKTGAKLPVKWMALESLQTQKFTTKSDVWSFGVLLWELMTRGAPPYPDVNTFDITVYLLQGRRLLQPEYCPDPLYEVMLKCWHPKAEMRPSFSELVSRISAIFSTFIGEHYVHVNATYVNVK

SMILES | IC50 [1] | EC50 (MKN45; MKN-45, 96 h, MKN45 cells) | EC50 (A549; A549, 96 h) | EC50 (EBC1; EBC-1, 96 h, EBC1 cells) | EC50 (MKN45; MKN-45, MKN45 cells) | EC50 (EBC1; EBC-1, EBC1 cells) | EC50 (A549)
CC(c1ccc2nc(NC(=O)C3CC3)cn2n1)c1nnc2ccc(-c3ccc(C#N)cc3)cn12 (stereo not drawn) [Compound 63, N-(6-(1-(6-(4-cyanophenyl)-[1,2,4]triazolo[4,3-a]pyridin-3-yl)ethyl)imidazo[1,2-b]pyridazin-2-yl)cyclopropanecarboxamide] | < 30 nM | < 30 nM | > 50000 nM | < 30 nM | – | – | –
CC(c1ccc2nc(NC(=O)C3CC3)cn2n1)c1nnc2ccccn12 (stereo not drawn) [Compound 52, N-(6-(1-([1,2,4]triazolo[4,3-a]pyridin-3-yl)ethyl)imidazo[1,2-b]pyridazin-2-yl)cyclopropanecarboxamide] | > 100 nM | > 100 nM | > 50000 nM | > 100 nM | – | – | –
O=C(O)c1ccc2nnc(Sc3ccc4nc(NC(=O)C5CC5)cn4n3)n2c1 [Compound 33, 3-(2-(cyclopropanecarboxamido)imidazo[1,2-b]pyridazin-6-ylthio)-[1,2,4]triazolo[4,3-a]pyridine-6-carboxylic acid] | > 100 nM | – | – | – | > 630 nM | > 200 nM | > 50000 nM
C[C@H](c1ccc2nc(NC(=O)C3CC3)cn2n1)c1nnc2ccc(-c3cnn(C)c3)cn12 [Compound 51, (R)—N-(6-(1-(6-(1-methyl-1H-pyrazol-4-yl)-[1,2,4]triazolo[4,3-a]pyridin-3-yl)ethyl)imidazo[1,2-b]pyridazin-2-yl)cyclopropanecarboxamide] | > 100 nM | > 100 nM | > 50000 nM | > 100 nM | – | – | –
COc1ccc(-c2ccc3nnc(C(F)(F)c4ccc5nc(NC(=O)C6CC6)cn5n4)n3c2)cc1 [Compound 75, N-(6-(difluoro(6-(4-methoxyphenyl)-[1,2,4]triazolo[4,3-a]pyridin-3-yl)methyl)imidazo[1,2-b]pyridazin-2-yl)cyclopropanecarboxamide] | < 30 nM | < 30 nM | 8000 to 25000 nM | < 30 nM | – | – | –
O=C(Nc1cn2nc(C(F)(F)c3nnc4ccc(-c5cncnc5)cn34)ccc2n1)C1CC1 [Compound 87, N-(6-(difluoro(6-(pyrimidin-5-yl)-[1,2,4]triazolo[4,3-a]pyridin-3-yl)methyl)imidazo[1,2-b]pyridazin-2-yl)cyclopropanecarboxamide] | 100 to 249 nM | 30 to 59 nM | > 50000 nM | 30 to 59 nM | – | – | –
CC(c1ccc2nc(NC(=O)C3CC3)cn2n1)c1nnc2ccc(-c3ccc(C#N)c(F)c3)cn12 (stereo not drawn) [Compound 72, N-(6-(1-(6-(4-cyano-3-fluorophenyl)-[1,2,4]triazolo[4,3-a]pyridin-3-yl)ethyl)imidazo[1,2-b]pyridazin-2-yl)cyclopropanecarboxamide] | < 30 nM | < 30 nM | > 50000 nM | < 30 nM | – | – | –
CC(c1ccc2nc(NC(=O)C3CC3)cn2n1)c1nnc2ccc(-c3ccc(S(C)(=O)=O)cc3)cn12 (stereo not drawn) [Compound 60, N-(6-(1-(6-(4-(methylsulfonyl)phenyl)-[1,2,4]triazolo[4,3-a]pyridin-3-yl)ethyl)imidazo[1,2-b]pyridazin-2-yl)cyclopropanecarboxamide] | < 30 nM | 60 to 100 nM | > 50000 nM | 60 to 100 nM | – | – | –
Cn1cc(-c2ccc3nnc(Sc4ccc5nc(NC(=O)C6CC6)cn5n4)n3c2)cn1 [Compound 5, N-(6-(6-(1-methyl-1H-pyrazol-4-yl)-[1,2,4]triazolo[4,3-a]pyridin-3-ylthio)-imidazo[1,2-b]pyridazin-2-yl)cyclopropanecarboxamide] | < 30 nM | < 100 nM | > 50000 nM | < 35 nM | – | – | –
CC(C)Oc1cccc(-c2ccc3nnc(C(F)(F)c4ccc5nc(NC(=O)C6CC6)cn5n4)n3c2)c1 [Compound 93, N-(6-(difluoro(6-(3-isopropoxyphenyl)-[1,2,4]triazolo[4,3-a]pyridin-3-yl)methyl)imidazo[1,2-b]pyridazin-2-yl)cyclopropanecarboxamide] | 60 to 100 nM | 30 to 59 nM | 8000 to 25000 nM | 30 to 59 nM | – | – | –
CC(C)(O)c1ccc2nnc(Sc3ccc4nc(NC(=O)C5CC5)cn4n3)n2c1 [Compound 40, N-(6-(6-(2-hydroxypropan-2-yl)-[1,2,4]triazolo[4,3-a]pyridin-3-ylthio)imidazo[1,2-b]pyridazin-2-yl)cyclopropanecarboxamide] | > 100 nM | – | – | – | > 630 nM | > 200 nM | > 50000 nM
COc1ccc(-c2ccc3nnc(C(F)(F)c4ccc5nc(NC(=O)C6CC6)cn5n4)n3c2)cn1 [Compound 86, N-(6-(difluoro(6-(6-methoxypyridin-3-yl)-[1,2,4]triazolo[4,3-a]pyridin-3-yl)methyl)imidazo[1,2-b]pyridazin-2-yl)cyclopropanecarboxamide] | 30 to 59 nM | < 30 nM | > 50000 nM | < 30 nM | – | – | –
N#Cc1cc(-c2ccc3nnc(Sc4ccc5nc(NC(=O)C6CC6)cn5n4)n3c2)ccc1OCCO [Compound 107, N-(6-(6-(3-cyano-4-(2-hydroxyethoxy)phenyl)-[1,2,4]triazolo[4,3-a]pyridin-3-ylthio)imidazo[1,2-b]pyridazin-2-yl)cyclopropanecarboxamide] | < 30 nM | – | – | – | 100 to 249 nM | 60 to 100 nM | > 50000 nM

More lines, main results first:

IC50 [1] | EC50 (MKN45; MKN-45, 96 h, MKN45 cells) | EC50 (A549; A549, 96 h) | SMILES | EC50 (EBC1; EBC-1, 96 h, EBC1 cells) | EC50 (MKN45; MKN-45, MKN45 cells) | EC50 (EBC1; EBC-1, EBC1 cells) | EC50 (A549)
< 30 nM | < 30 nM | > 50000 nM | CS(=O)(=O)c1ccc(-c2ccc3nnc(C(F)(F)c4ccc5nc(NC(=O)C6CC6)cn5n4)n3c2)cc1 [Compound 85, N-(6-(difluoro(6-(4-(methylsulfonyl)phenyl)-[1,2,4]triazolo[4,3-a]pyridin-3-yl)methyl)imidazo[1,2-b]pyridazin-2-yl)cyclopropanecarboxamide] | < 30 nM | – | – | –
60 to 100 nM | 100 to 249 nM | > 50000 nM | O=C(Nc1cn2nc(Cn3nnc4ccc(-c5cnn(CCO)c5)cc43)ccc2n1)C1CC1 [Compound 24] | 35 to 99 nM | – | – | –
> 100 nM | > 630 nM | > 19500 nM | CC(C)CNC(=O)c1ccc2nnc(Sc3ccc4nc(NC(=O)C5CC5)cn4n3)n2c1 [Compound 35, 3-(2-(cyclopropanecarboxamido)imidazo[1,2-b]pyridazin-6-ylthio)-N-isobutyl-[1,2,4]triazolo[4,3-a]pyridine-6-carboxamide] | 100 to 199 nM | – | – | –
30 to 59 nM | 60 to 100 nM | > 50000 nM | O=C(Nc1cn2nc(C(F)(F)c3nnc4ccc(-c5cnoc5)cn34)ccc2n1)C1CC1 [Compound 46, N-(6-(difluoro(6-(isoxazol-4-yl)-[1,2,4]triazolo[4,3-a]pyridin-3-yl)methyl)imidazo[1,2-b]pyridazin-2-yl)cyclopropanecarboxamide] | 60 to 100 nM | – | – | –
30 to 59 nM | 60 to 100 nM | > 50000 nM | COc1ccc(-c2ccc3nnc(Sc4ccc5nc(NC(=O)C6CC6)cn5n4)n3c2)cn1 [Compound 102, N-(6-(6-(6-methoxypyridin-3-yl)-[1,2,4]triazolo[4,3-a]pyridin-3-ylthio)imidazo[1,2-b]pyridazin-2-yl)cyclopropanecarboxamide] | 30 to 59 nM | – | – | –
< 30 nM | < 30 nM | 8000 to 25000 nM | CC(c1ccc2nc(NC(=O)C3CC3)cn2n1)c1nnc2ccc(-c3cccc(N(C)C)c3)cn12 (stereo not drawn) [Compound 73, N-(6-(1-(6-(3-(dimethylamino)phenyl)-[1,2,4]triazolo[4,3-a]pyridin-3-yl)ethyl)imidazo[1,2-b]pyridazin-2-yl)cyclopropanecarboxamide] | < 30 nM | – | – | –
30 to 59 nM | 100 to 249 nM | > 50000 nM | O=C(Nc1cn2nc(Sc3nnc4ccc(Br)cn34)ccc2n1)C1CC1 [Compound 4, N-(6-(6-bromo-[1,2,4]triazolo[4,3-a]pyridin-3-ylthio)imidazo[1,2-b]pyridazin-2-yl)cyclopropanecarboxamide] | < 35 nM | – | – | –
< 30 nM | < 30 nM | > 50000 nM | N#Cc1cccc(-c2ccc3nnc(Sc4ccc5nc(NC(=O)C6CC6)cn5n4)n3c2)c1 [Compound 104, N-(6-(6-(3-cyanophenyl)-[1,2,4]triazolo[4,3-a]pyridin-3-ylthio)imidazo[1,2-b]pyridazin-2-yl)cyclopropanecarboxamide] | < 30 nM | – | – | –
250 to 630 nM | 100 to 249 nM | > 50000 nM | Cn1cc(-c2ccc3nnc(C(F)(F)c4ccc5nc(N)cn5n4)n3c2)cn1 [Compound 99, 6-(difluoro(6-(1-methyl-1H-pyrazol-4-yl)-[1,2,4]triazolo[4,3-a]pyridin-3-yl)methyl)imidazo[1,2-b]pyridazin-2-amine] | 100 to 249 nM | – | – | –
< 30 nM | 100 to 249 nM | > 50000 nM | O=C(Nc1cn2nc(Sc3nnc4ccc(-c5cnn(CCO)c5)cn34)ccc2n1)C1CC1 [Compound 32] | 35 to 99 nM | – | – | –
< 30 nM | 250 to 630 nM | > 50000 nM | O=C(Nc1cn2nc(Sc3nnc4ccc(-c5ccc(N6CCNCC6)cc5)cn34)ccc2n1)C1CC1 [Compound 36, N-(6-(6-(4-(piperazin-1-yl)phenyl)-[1,2,4]triazolo[4,3-a]pyridin-3-ylthio)imidazo[1,2-b]pyridazin-2-yl)cyclopropanecarboxamide] | 35 to 99 nM | – | – | –
